Data on one compound can be found in US20250361267A1, “CHIMERIC COMPOUND FOR DEGRADING CYCLOPHILIN A, PREPARATION METHOD THEREFOR, AND USE THEREOF” (INSTITUTE OF MICROBIOLOGY, CHINESE ACADEMY OF SCIENCES, priority 2022, published 2025).

The target of series [1] is T1, CypA (Homo sapiens, UniProt P62937).
T1 construct: A549 cells in the logarithmic phase were collected; endogenous in cells; host or cells: A549
Briefly: CypA degradation in A549 cells by Western Blot. Format: cell-based. The conditions noted are these: A549 cell line. On the procedure: (§1) (1) A549 cells in the logarithmic phase were collected, the concentration of the cell suspension was adjusted, and 100 μL was added per well. The cells to be tested were plated to a density of 10^3 to 10^4 cells/well and incubated at 37° C. under 5% CO2 until the bottom of the wells was covered by a single layer of cells.
(§2) (2) Different concentrations of the compound represented by Formula I were added: 0, 10, 10^2, 10^3, 10^4 and 10^5 nM/well, with 3 replicate wells set, and incubated at 37° C. under 5% CO2 for 12 hours.
(1) The treated cells were scraped off from the culture medium, suspended thoroughly, and then collected by centrifugation at 300 g for 5 minutes. After washing with PBS once, the PBS was discarded.
(2) 100 μL of 2× Loading Buffer was added to each sample, shaken thoroughly to mix well, denatured at 100° C. for 5 minutes, and stored at −20° C. after mixing well or directly used for Western Blot detection. The Formula of 5× Loading Buffer was as follows: 250 mM Tris-HCl (pH 6.8), 10% (W/V) SDS, 0.5% (W/V) bromophenol blue, 50% (V/V) glycerol, 5% (W/V) β-mercaptoethanol (2-ME). […]
2) Sample preparation: protein samples were prepared according to experimental requirements, centrifuged, mixed well, and loaded into the loading wells of SDS-PAGE gel. The loading volume was adjusted appropriately according to the protein quantification results. […]
In general terms: In western blotting, separated proteins are transferred to a membrane and probed.

The subject of series [2] is A549 cells. Briefly: Effect on A549 cell activity by CCK-8 method. In kind it is cell-based. As to conditions: 0 to 10^5 nM, 12 hours. The protocol: as §1, §2
(1) 10 μL CCK-8 reagent was added to the above cells in each well and reacted for 2 h.
(2) The incubation was terminated, and the culture medium in the wells was carefully aspirated.
(3) The absorbance of each well was measured using a microplate reader with a wavelength of 450 nm.
(4) The absorbance ratio between the experimental group and the control group was calculated as follows: Cell viability=(Absorbance of the experimental group−Blank control)+ (Absorbance of the control group−Blank control)×100%.

The subject of another series is rheumatoid arthritis. The experiment in a line: Rat arthritis model (Freund complete adjuvant). In kind it is in vivo, Lewis rats. The conditions noted are these: rats, 10 mg/kg tail vein three times/week. The protocol: The BCG vaccine was inactivated in a water bath at 80° C. for 1 h, ground thoroughly with incomplete Freund adjuvant, and mixed well to prepare 15 mg/mL Freund complete adjuvant (FCA). Lewis rats were divided into 4 groups: blank group (PBS), untreated group (UT), treatment group 1 (compound) and treatment group 2 (MTX (methotrexate)), with 5 rats in each group and a body weight of […]. Except for the PBS group, rats were intradermally injected with 0.1 mL of FCA in the right hind paw. On day 14 after injection, rats in treatment group 1 (compound) were injected with the compound (10 mg/kg of body weight, dissolved in 100 μL of PBS) through the tail vein three times/week; rats in treatment group 2 (MTX (methotrexate)) were intraperitoneally injected with methotrexate (1.2 mg/kg of body weight) three times/week.
The circumference of the metatarsophalangeal joint was measured. The circumference of the ankle joint of the left hind paw (on the secondary lesion side) of all rats was measured once before modeling, before administration and 3 weeks after administration, respectively, and the percentage of joint swelling was calculated.
The joint index was determined by joint swelling score before administration (Day 0) and 3 weeks after administration. Scoring was carried out based on the redness and swelling degree of the ankle and toe joints of the front and rear limbs of rats and the affected joint index, as follows: 0 for normal; 1 for the redness and swelling of one joint; 2 for the redness and swelling of two or more joints; 3 for severe redness and swelling of the paw below the ankle joint; 4 for the redness and swelling of the entire paw including the ankle joint and inability to bear weight. The limbs were scored separately, and the cumulative sum of the scores was the joint index.
(1) On the day 21 of administration, rats were euthanized after blood collection. […]
(2) Joint synovial proliferation and the degree of sub-synovial inflammation were observed under a light microscope, and synovial cell proliferation was scored.

For series [3], the target named is CypA (Mus musculus, UniProt P17742). Format: in vivo, C57BL/6 mice. The conditions noted are these: IBV-infected mice, 10 mg/kg/day, 7 days after infection.
Sequence of CypA (Mus musculus, UniProt P17742) (P17742 whole entry): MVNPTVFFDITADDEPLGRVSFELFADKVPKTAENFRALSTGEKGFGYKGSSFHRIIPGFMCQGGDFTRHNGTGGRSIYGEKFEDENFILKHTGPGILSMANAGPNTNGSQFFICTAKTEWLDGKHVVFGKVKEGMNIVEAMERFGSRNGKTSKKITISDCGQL
The test system of series [4] is IL-1B, TNF-α, IL-6 and IFN-γ. Also on record: species or system C57BL/6 mice. The conditions noted are these: mouse, in vivo.
The test system of series [5] is A549 cells. Briefly: Migration and infiltration of lung cancer cells, Transwell chambers. Format: cell-based. The protocol:
(1) A549 cells in the logarithmic phase were collected, the concentration of the cell suspension was adjusted, and 100 μL was added per well. The cells to be tested were plated to a density of 10^3-10^4 cells/well and incubated at 37° C. under 5% CO2 until the bottom of the wells was covered by a single layer of cells.
as §2
The upper chamber of a 24-well cell culture insert ([…] pore size) was coated (no migration) or (invasive) with a matrix (1 mg/mL) and dried at 37° C. for 30 min.
(3) A549/WT and A549/CypA-cells were trypsinized, washed and suspended in serum-free DMEM after treatment with 20 ng/ml TGF-β for 48 h.
(1) DMEM containing 10% fetal bovine serum was added to the lower chamber per approximately 5×10^4 cells inserted in the upper chamber.
(2) After incubation for 6 h (migration) or 24 h (invasion), non-migrating or […] cells residing on the upper part of the insert membrane were removed with a cotton swab.
(3) The cells that migrated to the underside of the membrane were fixed and stained with 2% crystal violet in ethanol.
(4) The stained cells were observed and counted under a Japan Olympus CKX41 microscope.

A further series relates to IBV-induced pneumonia. Also on record: species or system C57BL/6 mice. As to conditions: mouse, in vivo.

Molecules are shown by their SMILES. Where only a bound is given, the exact number is not on record here.

T1 sequence (P62937 whole entry): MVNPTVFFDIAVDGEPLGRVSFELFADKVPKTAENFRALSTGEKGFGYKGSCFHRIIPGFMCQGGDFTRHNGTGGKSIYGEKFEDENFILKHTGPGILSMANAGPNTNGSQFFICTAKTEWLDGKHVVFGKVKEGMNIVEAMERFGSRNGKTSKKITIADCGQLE

On to `Cc1ncsc1-c1ccc(C(C)NC(=O)[C@@H]2C[C@@H](O)CN2C(=O)[C@H](NC(=O)COCCCCCOc2cccc(O)c2C(=O)NC(=O)NC2CCCCC2)C(C)(C)C)cc1` (stereo partly drawn) [Formula I], for which the DC50 at CypA [1] (12 hours, Western Blot, read-out: half-degradation concentration on CypA) was under 100 nM. Moreover, the “degradation effect on the CypA protein” value at CypA [1] (WB results) is reported as “clearly observed”. Also, the cell viability result in the series on A549 cells [2] is “above 80%”. In the series on rheumatoid arthritis (3 weeks after administration), the “joint index of the ankle joint” value was “reduce” and the joint swelling result is “significantly relieve”. For the same compound, the “inflammation of the ankle joint (ankle pathological scores)” value in the series with rheumatoid arthritis (day 21, HE staining) is on record as “alleviate”. For the same compound, on CypA [3], the “expression of CypA in mouse lung tissue” value was “significantly reduce”. Further, in series [4], the “expression of IFN-γ in the lung tissue” value is “significantly reduce”, the “expression of IL-1B in the lung tissue” value was “significantly reduce”, the “expression of IL-6 in the lung tissue” value is on record as “significantly reduce” and the “expression of TNF-α in the lung tissue” value is “significantly reduce”. The lung inflammation result in series [4] is recorded as “alleviating lung inflammation”. In the series on A549 cells [5] (Transwell with matrix, 24 h), the “infiltration of lung cancer cells” value is reported as “significantly reduce”. Further, the “migration of lung cancer cells” value with A549 cells [5] (Transwell, 6 h) was “significantly reduce”. Further, the “lung injury (lung index, pathology, pathological scores)” value with IBV-induced pneumonia was “significantly alleviate lung injury”.
